Source: US20230321106A1, “USE OF TOPICAL BRAF INHIBITOR COMPOSITIONS FOR TREATMENT OF EPIDERMAL GROWTH FACTOR RECEPTOR DOWNSTREAM EFFECTORS - INDUCED CUTANEOUS REACTIONS” (Lutris Pharma Ltd., priority 2020, published 2023)
Entries after “also recorded” stand apart in the source; their conditions may differ.

Assays:
[1] = system: phosphorylated ERK1/2 (MAPK pathway) in HKGS-activated HEKa cells; assay: Reversal of EGFR inhibitor-mediated pERK inhibition in HKGS-activated HEKa cells, Western blot; assay type: cell-based, human; conditions: two hours
Protocol: Primary HEKa, isolated from adult skin of a single donor and cryopreserved at the end of primary culture (Gibco catalog number C0055C, Thermo Fisher Scientific, Waltham, MA), were cultured in T25 flasks at 37° C., 5% CO2 in growth medium (Epilife™ CF Kit, Gibco) supplemented with 60 μM calcium (Gibco) and HKGS (Gibco). After at least three passages, cells were harvested with trypsin when flask reached 70-80% confluence, and seeded in 10 cm culture dishes (250,000 cells/dish) in 9 ml of growth medium overnight. To analyze the effect of HKGS or a BRAF inhibitor on pERK, cells were starved for 2.5 hours in 5 mL of starvation medium without HKGS, and then individual plates were incubated for two hours with DMSO 0.1%, HKGS, vemurafenib 0.3 μM (0.146 μg/mL), or LUT014 0.3 μM (0.158 μg/mL). […] Cells were harvested with 1 ml cold PBS containing EDTA-free, phosphatase inhibitor cocktail (MilliporeSigma, Burlington, MA) using a cell scraper. […] The signals of phosphorylated ERK1/2 and total ERK2 were quantified using ImageJ software and the phosphorylated ERK1/2/total ERK2 ratio was calculated. For the quantification, equal sized rectangles were drawn around the bands of the phosphorylated ERK1/2 and the total ERK2 and the pixels in each rectangle were measured.

[2] = Phase 1 clinical trial: plasma pharmacokinetics (LC-MS/MS); assay type: in vivo, human; conditions: patients, topical gel; for systemic absorption / exposure after topical administration: plasma
Protocol: Blood samples for PK analysis were taken from the initial three patients enrolled to each dosing cohort (total 9 patients). PK samples were collected pre-dose on day 0 and day 7 and at 1, 2, 4, 8 and 24 hours post-dose. A qualified liquid chromatography tandem mass spectroscopy LC-MS/MS analytical assay with an LLOQ of 10 pg/ml was used to determine concentrations of LUT014 in plasma. Plasma concentrations below the limit of quantitation (<10 pg/mL) were treated as zero for the calculations of mean (SD).
Tabular summaries of the secondary safety assessments included descriptive statistics (i.e., mean, standard deviation, median, and range for continuous data and frequency for categorical data) for each visit assessed, as well as for the calculated changes from baseline. For the pharmacokinetics analyses, plasma LUT014 concentration-time profiles were analyzed by non-compartmental methods and PK parameters were calculated by standard equations, when plasma levels are achieved. PK analyses produced using Phoenix® WinNonLin (Certara, Princeton, NJ). The efficacy assessments NCI CTCAE skin and subcutaneous tissue disorders grading scale, MASCC Study Group EGFR Inhibitor-dermatologic adverse event grading scale, FACT-EGFRI-13 questionnaire, were summarized by treatment group using descriptive statistics as appropriate (i.e., mean, standard deviation, median, and range for continuous data and frequency for categorical data). All analyses were performed using SAS® Software (version 9.2, SAS Institute, Cary, NC).

[3] = system: MIA-PaCa-2 cells; assay: MIA-PaCa-2 cellular proliferation (ATP-lite, 72 hours); assay type: cell-based, human
Protocol: MIA-PaCa-2 cells (ATCC catalog number CRM-CRL-1420, Manassas, VA) were cultured at 37° C. in T75 flasks in growth medium DMEM (ATCC) supplemented with 10% FBS and 2.5% horse serum. After 4 days, when the flasks reached 50% confluence, cells were harvested with trypsin and seeded in 96 well plates at a concentration of 5000 cells/well, in a total volume of 0.1 ml/well starvation medium and incubated 24 hours at 37° C., 5% CO2. The next morning, medium was replaced with 180 μl growth medium (containing 10% FBS and 2.5% horse serum) and 20 μl of each concentration of LUT014, DMSO or PBS. Each concentration of each compound was added to triplicate wells. The plates were incubated for 72 hours at 37° C., 5% CO2. Cellular proliferation was measured using the ATP-lite proliferation assay (Perkin Elmer, Waltham, MA) following the manufacturer's instructions, with the luminescence measured using a CLARIOstar reader (BMG Labtech, Ortenberg, Germany), and analyzed with the ATPlite TOP program (Perkin Elmer).

[4] = system: phosphorylated ERK1/2 (MAPK pathway) in primary adult human epidermal keratinocytes (HEKa); assay: pERK induction in HEKa cells, Western blot (phosphorylated ERK1/2 / total ERK2); assay type: cell-based; conditions: 0.3 μM, two hours
Protocol: Primary HEKa, isolated from adult skin of a single donor and cryopreserved at the end of primary culture (Gibco catalog number C0055C, Thermo Fisher Scientific, Waltham, MA), were cultured in T25 flasks at 37° C., 5% CO2 in growth medium (Epilife™ CF Kit, Gibco) supplemented with 60 μM calcium (Gibco) and HKGS (Gibco). After at least three passages, cells were harvested with trypsin when flask reached 70-80% confluence, and seeded in 10 cm culture dishes (250,000 cells/dish) in 9 ml of growth medium overnight. To analyze the effect of HKGS or a BRAF inhibitor on pERK, cells were starved for 2.5 hours in 5 mL of starvation medium without HKGS, and then individual plates were incubated for two hours with DMSO 0.1%, HKGS, vemurafenib 0.3 μM (0.146 μg/mL), or LUT014 0.3 μM (0.158 μg/mL). To analyze the effects of LUT014 to re-activate pERK in HKGS-activated HEKa cells cultured in an EGFR inhibitor, cells were seeded in 60 mm dishes (120,000 cells/dish) in 4 ml growth medium. […] The signals of phosphorylated ERK1/2 and total ERK2 were quantified using ImageJ software and the phosphorylated ERK1/2/total ERK2 ratio was calculated. For the quantification, equal sized rectangles were drawn around the bands of the phosphorylated ERK1/2 and the total ERK2 and the pixels in each rectangle were measured.

[5] = system: anti-EGFR therapy-induced acneiform lesions; assay: Phase 1 clinical trial: efficacy on acneiform lesions (CTCAE, MASCC, FACT-EGFRI-13); assay type: in vivo, human
Protocol: Three scales were used to evaluate the severity of acneiform lesions during the clinical trial period. The primary readout was based on the National Cancer Institute (NCI) Common Terminology Criteria for Adverse Events (CTCAE) version 5.0 for grading acneiform rash. The clinical trial eligibility criteria were based on having an acneiform skin rash of grade 1 or 2 while on anti-EGFR therapy, and therefore the grading change from baseline with the topical application of LUT014 was measured. The Multinational Association of Supportive Care in Cancer (MASCC) Study Group EGFR Inhibitor-dermatologic adverse event grading scale is a central reviewer-assessment based on the review of pictures provided to one remote reviewer (Wong, et al., Support Care Cancer 21, 2933-2948, 2013). The Functional Assessment of Cancer Therapy (FACT) is a health-related quality of life questionnaire to assess symptoms associated with EGFR inhibitors (Wagner, et al., Support Care Cancer 21, 1033-1041, 2013). The score based on the 13 skin-specific questions (FACT-EGFRI-13) was reported, and was calculated by the change in total score relative to baseline, with a decrease in value representing worsening and an increase value representing improvement of skin-related symptoms.
Evaluation of the preliminary efficacy of LUT014 gel for the treatment of anti-EGFR therapy-induced acneiform lesions was based on the following: A) Acneiform lesions grading performed locally by the Investigator using the NCI CTCAE version 5.0 skin and subcutaneous tissue disorders grading scale. B) Acneiform lesions grading performed by a central reader, using the MASCC Study Group EGFR Inhibitor-dermatologic adverse event grading scale (Wong, et al., 2013). Grading was based on masked photographs of patients' face, neck, and upper portion of the anterior and posterior chest. C) Patient self-reported quality of life FACT-EGFRI-13 questionnaire (Wagner et al, 2013), assessing the physical and psychological effects of the dermatological symptoms associated with anti-EGFR treatment on study patients. Only the first 13 questions of the FACT-EGFRI that are relevant for the skin were evaluated. Data from all patients who received at least one dose of study drug were included in the safety and efficacy analyses.

[6] = Phase 1 clinical trial of topical LUT014 gel: safety and tolerability; assay type: in vivo, human
Description: This was an open-label, dose escalation study of LUT014 gel topically administered for four weeks. A 2-week screening period (day −14 to day −1) was followed by a 4-week treatment period (day 0 to day 27). Patients applied the study drug once daily to their face, neck, chest, and upper back. The post-treatment safety follow-up period ran from day 28 to day 55. Additionally, two long term safety follow up visits were done 3 and 6 months after completion of treatment, including a dermatological exam to detect any potential BRAF inhibitor skin toxicities within the treatment area.
Three dose levels of LUT014 gel were tested: 0.3 mg/g, 1.0 mg/g and 2.5 mg/g. The dose of LUT014 was escalated in sequential dose cohorts of 3 to 6 patients, in a conventional 3+3 escalating dose design. Escalation to the next dose level was permitted if no DLT was reported by the three patients in the cohort within 4 weeks of receiving the first dose of LUT014. If one out of three patients developed a dose limiting toxicity (DLT), additional three patients were planned to be treated with study drug at the same dose level. At any given dose level, if more than one out of the three or six patients experienced a DLT within 4 weeks of receiving the first dose of LUT014, the dose level was determined to have exceeded the MTD, and the MTD was set to be the next lower dose.
A DLT was defined as any treatment-emergent grade 2 or higher clinically significant adverse event, with the exception of a transient grade 2 adverse event (i.e., one that returns to grade 1 or baseline within 7 days) or grade 2 adverse event that was manageable with standard of care (i.e., one that returns to grade 1 or baseline within 14 days), that occurred within 4 weeks of the first dose of study drug for which there was a reasonable possibility that LUT014 had caused the event. Upon completion of the 4-week treatment period of the third patient in each dosing cohort, a Safety Review Committee (SRC) meeting was set to review the safety data and to provide recommendation/decision on dose escalation/de-escalation, or expansion of dosing cohort.
Safety and tolerability were assessed primarily based on the adverse events from day 0 to day 55. In addition to the adverse events assessment, the safety measurements included physical examination, vital signs and body weight, 12-lead ECG, ECOG performance status, safety labs including complete blood count, comprehensive metabolic panel and urinalysis. At 3 and 6 months […] a dermatologist performed a skin assessment of the areas of the skin where LUT014 gel was applied to screen for potential cutaneous toxicities known to be associated with approved BRAF inhibitors, including erythema nodosum-type rash, photosensitivity, squamous papillomas or warts, keratoacanthomas, cutaneous squamous cell carcinoma, dry skin, and folliculitis or cysts (Welsh, et al., Therapeutic advances in medical oncology 7, 122-136, 2015).

[7] = topical gel 0.3, 1.0, 2.5 mg/g once daily, 4 weeks, 10 patients

C#Cc1cccc(Nc2ncnc3cc(OCCOC)c(OCCOC)cc23)c1 [erlotinib, reference compound]
HKGS stimulation of the MAPK pathway (pERK) ([1]; HKGS plus erlotinib 10 μM): partially inhibited

Cc1ccc2c(Nc3cccc(OC(F)(F)F)c3)nccc2c1Nc1ncccc1-c1ncnc2[nH]cnc12 [LUT014]
plasma concentrations lower than effective systemic concentrations of other BRAF inhibitors [2]: 3 to 4 orders of magnitude | plasma concentrations ([2]; day 0 and day 7): in the pg/mL range | systemic absorption / exposure after topical administration ([2]; day 0 and day 7): negligible absorption and minimal systemic exposure | systemic absorption / exposure after topical administration ([2]; day 0 and day 7, listed as compound of formula IV): negligible to minimal systemic absorption | concentration of peak proliferation [3]: 0.041 µM | proliferation at the highest concentrations [3]: growth arrest | increase in pERK, compared with HKGS [4]: higher | time to CTCAE improvement ([5]; cohort 1, 0.3 mg/g): two of the patients showing improvement within the first week | FACT-EGFRI-13 skin-related symptom questionnaire change ([5]; cohort 1, 0.3 mg/g, 28-day treatment): the three patients had symptomatic improvement | benefit after administration had terminated ([5]; cohort 1, 0.3 mg/g, all three patients, day 55): sustained benefit by day 55 | acneiform rash CTCAE grade change ([5]; cohort 1, 0.3 mg/g, three patients with grade 2 at baseline, 28-day treatment): all improved to grade 1 | central reviewer MASCC grading change ([5]; cohort 1, 0.3 mg/g, treatment period): two patients improved and one patient did not change | acneiform skin rash, overall ([5]; cohort 2 (1.0 mg/g)): evidence of acneiform rash improvement | FACT-EGFRI-13 symptom questionnaire change ([5]; cohort 2, 1.0 mg/g, baseline grade 1 rash): two patients with baseline grade 1 rash reported stable skin-related symptoms | FACT-EGFRI-13 symptom questionnaire change ([5]; cohort 2, 1.0 mg/g, baseline grade 2 rash): two patients with baseline grade 2 rash improved symptoms | MASCC grading change ([5]; cohort 2, 1.0 mg/g, four patients): three patients improved grading during the treatment period while one worsened | acneiform rash CTCAE grade change ([5]; cohort 2, 1.0 mg/g, patients with grade 1 at baseline): two with grade 1 at baseline that did not change in grading | acneiform rash CTCAE grade change ([5]; cohort 2, 1.0 mg/g, patients with grade 2 at baseline, 28-day treatment): two with grade 2 at baseline that improved to grade 1 | FACT-EGFRI-13 symptom questionnaire change ([5]; cohort 3, 2.5 mg/g): one patient improved and two worsened | acneiform rash CTCAE grade change ([5]; cohort 3, 2.5 mg/g, three patients, 28-day treatment): one improved, another was stable and one patient had worsening acneiform skin rash | MASCC grading change ([5]; cohort 3, 2.5 mg/g, compared with the CTCAE course): The same course was evident | acneiform skin rash, overall ([5]; highest dose cohort (2.5 mg/g)): no consistent evidence of improvement | improvement of acneiform rash in grade 2 patients ([5]; low and intermediate cohorts (0.3 and 1.0 mg/g)): all grade 2 patients (six patients) | acneiform skin rash, overall by three assessment criteria ([5]; lowest dose cohort (0.3 mg/g)): improved in all patients | toxicities associated with oral systemic BRAF inhibitors (photosensitivity, maculo-papular rash, hyperkeratosis) ([6]; all cohorts): no local or systemic toxicities | patients with an adverse event considered related to the study drug ([6]; all cohorts, 10 patients, pruritus, dry skin, stinging sensation): Seven | Treatment-related adverse events: Dry skin, All Grades ([6]; human, in vivo, 4 weeks): 1 | Treatment-related adverse events: Dry skin, Grade 3 or 4 ([6]; human, in vivo, 4 weeks): 0 | Treatment-related adverse events: Local Pain, All Grades ([6]; human, in vivo, 4 weeks): 1 | Treatment-related adverse events: Local Pain, Grade 3 or 4 ([6]; human, in vivo, 4 weeks): 0 | Treatment-related adverse events: Pruritus, All Grades ([6]; human, in vivo, 4 weeks): 6 | Treatment-related adverse events: Pruritus, Grade 3 or 4 ([6]; human, in vivo, 4 weeks): 0 | severity grade of related adverse events ([6]; human, in vivo, 4 weeks): 1-2 | total adverse events of any attribution ([6]; human, in vivo, 4 weeks): 38 | dose-limiting toxicities [6, 7]: no dose-limiting toxicities; also recorded: no dose limiting toxicity | tolerability [6, 7]: well tolerated | effect on pERK inhibition by EGFR inhibitors (erlotinib, cetuximab) ([1]; HKGS plus EGFR inhibitor plus LUT014 0.3 μM): abrogated the inhibitory effect of both EGFR inhibitors
